In US6458983B1, “Method for synthesizing complexes of platinum with iminoethers and their use as antitumoral drugs and nucleotide-base modifiers” (priority 1998, dated 2002):
Marks after values point to notes of the source that are not given here.

Legend:
[1] = background statement; cited from earlier work
[2] = tested on: solid and lymphoproliferative murine tumors; details: background statement; cited from earlier work
[3] = tested on: ovarian carcinoma (A2780); test: Inhibition of in vitro proliferation of human tumor cells, A2780; format: cell-based; details: 72 hours treatment, cell number vs untreated control; read-out: Inhibitory concentrations (IC50) A2780
Experimental: (§1) The antitumoral activity of compounds having the formula trans-[PtCl2(NH3){Z-HN═C(OMe)Me}] (1) and trans-[PtCl2(NH3){E-HN═C(OMe)Me}] (2) was tested. Specifically, the antitumoral activity of compounds (1) and (2) was analyzed in experimental systems in vitro, testing for inhibition of the proliferation of human tumor cells in culture and in vivo by testing the increment in survival of mice carriers of P388 murine leukemia.
(§2) The inhibitory effect of compounds (1) and (2) on the in vitro proliferation of human tumor cells of ovarian carcinoma (A2780), pulmonary carcinoma (Calu), colon carcinoma (LoVo) and on an ovarian carcinoma line (A2780/cp8) with resistance to cisplatinum is presented in the following Table I.
(§3) Proliferation inhibition is expressed by means of IC50 values, which indicate the concentration of compound (μM) in the culture medium that determines a 50% reduction in the proliferation of the treated cells with respect to untreated cells.
(§4) The IC50 values were extrapolated from dose-response curves obtained by treating for 72 hours the tumor cells with various concentrations of the tested compounds dissolved in the culture medium and checking, at the end of the incubation period, the number of cells present in the treated samples with respect to the number of cells in the untreated samples (control).

[4] = tested on: pulmonary carcinoma (Calu); test: Inhibition of in vitro proliferation of human tumor cells, Calu; format: cell-based; details: 72 hours treatment, cell number vs untreated control; read-out: Inhibitory concentrations (IC50) Calu
Experimental: as §1, §2, §3, §4

colon carcinoma (LoVo) = test: Inhibition of in vitro proliferation of human tumor cells, LoVo; format: cell-based; details: 72 hours treatment, cell number vs untreated control; read-out: Inhibitory concentrations (IC50) Lo Vo
Experimental: as §1, §2, §3, §4

[5] = tested on: ovarian carcinoma line (A2780/cp8) with resistance to cisplatinum; test: Inhibition of in vitro proliferation of human tumor cells, A2780/cp8; format: cell-based; details: 72 hours treatment, cisplatinum-resistant line; read-out: Inhibitory concentrations (IC50) A2780/cp8
Experimental: as §1, §2, §3, §4

P388 murine leukaemia = test: Antitumoral activity in vivo, survival of P388 murine leukemia carrier mice; design: species or system B6D2F1 female mice
Experimental: as §1
The antiumoral activity in vivo of compounds 1 and 2, expressed as an increment in the survival of P388 murine leukemia carrier mice, was also tested.
(§5) ^a P388 leukemic cells (10^6/animal) were inoculated in the peritoneum in B6D2F1 female mice (body weight=18 g) on day 0; treatment with the platinum compounds, dissolved at the time of use in a physiological solution, was performed on days 1-7, administering IP the doses indicated in the table in a volume equal to 0.1 ml/10 g body weight.
^c ILS=(average of the days of survival of treated mice/average of days of survival of untreated mice) X 100.

[6] = Body weight variation and toxicity in treated P388 carrier mice; format: in vivo; details: at the end of the treatment
Experimental: as §5
^b Percentage variation of body weight of the animals at the end of the treatment.

tumor cells = details: cited from earlier work
[7] = 10 mg/kg IP daily, ILS = (average survival days treated/untreated) × 100
[8] = 15 mg/kg IP daily, ILS = (average survival days treated/untreated) × 100
[9] = 20 mg/kg IP daily, ILS calculated on 4 animals

Row | SMILES | antitumoral activity [1] | IC50 [3] [µM] | IC50 [4] [µM] | IC50 (colon carcinoma (LoVo)) [µM] | IC50 [5] [µM] | ILS (P388 murine leukaemia; [7]) | ILS (P388 murine leukaemia; [8]) | ILS (P388 murine leukaemia; [9]) | Percentage variation of body weight ([6]; 10 mg/kg IP daily) [%] | Percentage variation of body weight ([6]; 15 mg/kg IP daily) [%] | Percentage variation of body weight ([6]; 20 mg/kg IP daily) [%] | further results
1 | N.N.[Cl][Pt+2][Cl] [trans-DDP, trans-[PtCl2(NH3)2]] | no antitumoral activity | – | – | – | – | – | – | – | – | – | – | –
2 | COC(C)=N.COC(C)=N.[Cl][Pt][Cl] [trans-[PtCl2{E-HN═C(OMe)Me}2]] | – | – | – | – | – | – | – | – | – | – | – | antitumoral activity in vivo [2]: antitumoral activity in vivo
3 | N.NC1CCCCC1.[OH][Pt]([OH])([Cl])[Cl] [trans-[PtCl2(OH)2(NH3){NH2(C6H11)}]] | antitumoral activity in vitro and in vivo | – | – | – | – | – | – | – | – | – | – | –
4 | COC(C)=N.N.[Cl][Pt][Cl] [Compound 2, trans-[PtCl2(NH3){E-HN═C(OMe)Me}]] | – | 8.5 | 55 | 7 | 8.6 | 128 | 152 | 132^e | −1.8 | −3.1 | −10 | –
5 | [Cl][Pt][Cl].c1ccncc1.c1ccncc1 [trans-[PtCl2(pyridine)2]] | – | – | – | – | – | – | – | – | – | – | – | cytotoxic effect in vitro against tumor cells (tumor cells): higher cytotoxic effect in vitro against tumor cells than trans-DDP
6 | COC(C)=N.N.[Cl][Pt][Cl] [Compound 1, trans-[PtCl2(NH3){Z-HN═C(OMe)Me}]] | – | 37 | 90 | 21 | 35 | 165 | 173 | 190^d | −1.5 | −4.4 | −11.5 | –
